Test results taken from PubChem BioAssay (NCI).
Values joined by “and” are separate entries in the source; they are usually repeats but may differ in a detail not shown here. Identical values can stand only once.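 Cells were grown in 96-well plates and exposed to each compound for 48 hours at five concentrations; endpoints were interpolated linearly between bracketing concentrations, or set to the highest concentration if not reached. The concentration for 50% growth inhibition is given as GI50. TGI is the concentration that stops growth completely.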

What was measured:
Assay in all cases: NCI anticancer screen, dose series, 48 h
[1] = tested on: HCT-116 colon
[2] = tested on: DU-145 prostate
[3] = tested on: PC-3 prostate
[4] = tested on: NCI-H460 lung
[5] = tested on: SNB-75 CNS
[6] = tested on: MOLT-4 leukemia
[7] = tested on: MDA-N
[8] = tested on: HCC-2998 colon
[9] = tested on: HT29 colon
[10] = tested on: OVCAR-4 ovarian

Row | SMILES | TGI [1] [µM] | TGI [2] [µM] | TGI [3] [µM] | TGI [4] [µM] | TGI [5] [µM] | TGI [6] [µM] | TGI [7] [µM] | TGI [8] [µM] | TGI [9] [µM] | TGI [10] [µM] | GI50 [6] [µM] | GI50 [10]
1 | N#Cc1sc2c(c1OC(=O)c1ccc(C(F)(F)F)cc1)c(=O)n(-c1ccccc1)c(=S)n2-c1ccccc1 | 74.6 | > 100 | > 100 | > 100 | 85.7 | 52.7 | > 100 | > 100 | 82.5 | > 100 |  | 
2 | CCN(C(=O)N[C@@H](C)C(=O)N[C@@H](Cc1ccccc1)C(=O)OC)c1ccccc1 | > 100 | > 100 | > 100 | 38.4 | > 100 | > 100 | > 100 | > 100 | > 100 | > 100 |  | 
3 | O=C(CCSC1=NCCCN1)c1ccc(F)cc1 | 39.3 | 36 | 31 | 47.7 | 42.6 | 7.27 | 32.4 | 36.5 | 40.5 | > 100 |  | 
4 | CCOC(=O)CC/C(=N/Nc1ccc(Cl)cc1[N+](=O)[O-])C(=O)OCC | > 100 | > 100 | > 100 | > 100 | > 100 | > 100 | > 100 | 71.5 | > 100 | > 100 |  | 
5 | Cc1cc(C[C@H]2O[C@@H]3OC(C)(C)O[C@@H]3[C@H]3OC(C)(C)O[C@H]32)c2ccccc2n1 | > 100 | > 100 | > 100 | > 100 | > 100 | > 100 | > 100 | > 100 | > 100 | > 100 |  | 
6 | COc1cc(O)c2c(=O)c(OC)c(-c3ccc(OC)c(O)c3)oc2c1 | > 100 | > 100 | > 100 | > 100 | > 100 | > 100 | > 100 | > 100 | > 100 | > 100 |  | 
7 | O=c1onc2n1-c1cc(Cl)ccc1C(=S)N1CSCC21 (configuration not stated) | > 100 | > 100 | > 100 | > 100 | > 100 | > 100 | > 100 | > 100 | > 100 | > 100 |  | 
8 | CC(C)(CO)CNc1nc(N)nc(Cl)c1/C=N/O | > 100 | > 100 | > 100 | > 100 | > 100 | > 100 | > 100 | > 100 | > 100 | > 100 |  | 
9 | C=C1C(=O)[C@@]23CC[C@@H]4[C@@]5(C)CCC[C@@]4(OC5=O)[C@@]2(C)CC[C@@H]1C3 | 2.92 | 12.2 | 5.31 | 3.74 | 13.1 | > 26.1 | > 100 | 5.56 | 10.6 | 5.28 |  | 
10 | CC1OC(O[C@H]2C3C=CO[C@@H](OC4OC(CO)C(O)C(O)C4O)C3[C@@]3(COC(=O)/C=C/c4ccccc4)O[C@@H]23)C(O)C(O)C1O (some centres not stated) | > 100 | > 100 | > 100 | > 100 | > 100 | > 100 | > 100 | > 100 | > 100 | > 100 |  | 
11 | O=C1CSC2(CC(/C=C/c3cccs3)=NN2c2cccc(S(=O)(=O)O)c2)N1c1nc2ccccc2s1 (configuration not stated) | > 100 | > 100 | > 100 | > 100 | > 100 | > 100 | > 100 | > 100 | > 100 | > 100 |  | 
12 | Cc1c2c(c(C)n1-c1ccccc1)C(=O)N(CCN1CCN(c3cccc(C(F)(F)F)c3)CC1)C2=O | > 100 | > 100 | > 100 | > 100 | > 100 | > 100 | > 100 | > 100 | > 100 | > 100 |  | 
13 | Cc1cc(N(C)C)c2ccccc2[n+]1CCCCCCCCCC[n+]1c(C)cc(N(C)C)c2ccccc21 | 12.4 | 16.2 | 7.48 | 13 | 8.91 | 13.8 | 2.73 | 13.5 | > 35 | 22.2 |  | 
14 | CC(C)N1CCN(c2ccc(OCC3COC(Cn4cncn4)(c4ccc(Cl)cc4Cl)O3)cc2)CC1 (configuration not stated) | 23.4 | 31.5 | 35.1 | 31.3 | 27.5 | 28.8 | 16.6 | 21.1 | 13.4 | 35.6 |  | 
15 | Clc1ccc(C=NC23CC4CC(CC(C4)C2)C3)c(Cl)c1 | > 10 | > 10 | > 10 | > 10 | > 10 | > 10 | > 10 | > 10 | > 10 | > 10 |  | 
16 | COc1ccc(C(=O)NCCN(C)C)c2nc3ccccc3cc12 | 5.25 | 3.85 | 4.82 | 2.55 | 13.3 | 22.6 | 4.38 | 8.34 | 5.6 | 6.49 |  | 
17 | Nc1ncnc2c1ccn2C/C=C/CO | > 100 | > 100 | > 100 | > 100 | > 100 | > 100 | > 100 | > 100 | > 100 | > 100 |  | 

Row | SMILES | TGI [1] [µM] | TGI [2] [µM] | TGI [3] [µM] | TGI [4] [µM] | TGI [5] [µM] | TGI [6] [µM] | TGI [7] [µM] | TGI [8] [µM] | TGI [9] [µM] | TGI [10] [µM] | GI50 [6] [µM] | GI50 [10]
18 | CC(C)(C)OC(=O)NC(CSSCC(NC(=O)OC(C)(C)C)C(=O)O)C(=O)O (configuration not stated) | > 100 | > 100 | > 100 | > 100 | > 100 | > 100 | > 100 | > 100 | > 100 | > 100 |  | 
19 | CCCCOCCOC1=C(Cl)C(=O)c2c(O)ccc(O)c2C1=O | 0.841 | 3.08 | 3.08 | 3.48 | 2.01 | 1.96 | 0.766 | 6.01 | 2.16 | 1.99 |  | 
20 | O=C(O)C(O)C(O)C(O)C(O)CO (configuration not stated) | > 100 | > 100 | > 100 | > 100 | > 100 | > 100 | > 100 | > 100 | > 100 | > 100 |  | 
21 | OCCCc1ccc2c(c1)[C@H](CO)[C@@H](c1ccc(O)cc1)O2 | > 100 | > 100 | > 100 | > 100 | > 100 | > 100 | > 100 | 37.3 | > 100 | 30.4 |  | 
22 | Cc1ccc(/C=C2/N=C(N/N=C\C(O)C(O)C(O)C(O)CO)NC2=O)cc1 (configuration not stated) | > 100 | > 100 | > 100 | > 100 | > 100 | > 100 | > 100 | > 100 | > 100 | > 100 | 70.1 | 85.1 µM and > 100 µM and 39.2 µM
23 | O=C1C(=Nc2ccc(Nc3ccccc3)cc2)Oc2ccccc21 | 3.18 | 21 | 8.58 | 30.5 | 8.52 | 6.39 | 7.16 | 23.4 | 4.53 | 6.8 |  | 
24 | CCOc1c(OC)cc(-c2nc3n(n2)C(=O)C(CC)S3)cc1OC (configuration not stated) | > 10 | > 10 | > 10 | > 10 | > 10 | > 10 | > 10 | > 10 | > 10 | > 10 |  | 
25 | Cn1c2ccccc2c2c(=S)c3ccccc3ccc21 | > 100 | > 100 | > 100 | > 100 | > 100 | > 100 | > 100 | > 100 | > 100 | > 100 |  | 
26 | COc1cc(C=O)ccc1O | > 100 | > 100 | > 100 | > 100 | > 100 | > 100 | > 100 | > 100 | > 100 | > 100 |  | 
27 | CSc1nc2c(c(N(C)C)n1)C(O)n1c(nc3ccccc31)S2 (configuration not stated) | > 62.1 | > 100 | > 100 | > 100 | 74.2 | > 100 | > 100 | > 100 | > 100 | 24.5 |  | 
28 | O=C(CNc1ccc(Cl)cc1Cl)Nn1c(-c2ccccc2)nc2ccccc2c1=O | 31.3 | 27.5 | 29.9 | 30.5 | 30.5 | 43.3 | 34.5 | 31.8 | 37.6 | 32.2 |  | 
29 | CCOC(=O)/C(C(C)=O)=C(\OC(C)=O)c1ccncc1C(=O)O | > 100 | > 100 | > 100 | > 100 | > 100 | > 100 | > 100 | > 100 | > 100 | > 100 |  | 
30 | Cc1ccc2c(c1)c1ccc3c(c1n2C)C(=O)C=CC3=O | 2.92 | > 10 | > 9.27 | > 10 | > 10 | 2.19 | 3.65 | > 10 | > 10 | > 5.56 |  | 
31 | Clc1sc(Cl)c2c1[C@@H](Cl)C[C@@H]2Br | > 100 | > 100 | > 100 | > 100 | > 100 | 43.9 | > 100 | > 100 | > 100 | > 100 |  | 
32 | COc1ccc(-c2nc3ccccc3c(=S)n2OC(C)=O)cc1 | > 25 | > 25 | > 25 | > 25 | > 25 | > 25 | > 25 | > 25 | > 25 | > 25 |  | 
33 | CC(C)(C)N=C(N)NC#N | > 100 | > 100 | > 100 | > 100 | > 100 | > 100 | > 100 | > 100 | > 100 | > 100 |  | 
34 | CN1CC[C@]2(c3cccc(O)c3)CC(=O)/C(=C/c3ccccc3)[C@@H]1C2 | 5.94 | 17.5 | 7.74 | 7.23 | 5.27 | 5.59 | 3.94 | 7.16 | 7.55 | 16.9 |  | 
